The target of this experiment is T1, ATP-sensitive inward rectifier potassium channel 1 (Homo sapiens, UniProt P48048).
T1 sequence (P48048 whole entry): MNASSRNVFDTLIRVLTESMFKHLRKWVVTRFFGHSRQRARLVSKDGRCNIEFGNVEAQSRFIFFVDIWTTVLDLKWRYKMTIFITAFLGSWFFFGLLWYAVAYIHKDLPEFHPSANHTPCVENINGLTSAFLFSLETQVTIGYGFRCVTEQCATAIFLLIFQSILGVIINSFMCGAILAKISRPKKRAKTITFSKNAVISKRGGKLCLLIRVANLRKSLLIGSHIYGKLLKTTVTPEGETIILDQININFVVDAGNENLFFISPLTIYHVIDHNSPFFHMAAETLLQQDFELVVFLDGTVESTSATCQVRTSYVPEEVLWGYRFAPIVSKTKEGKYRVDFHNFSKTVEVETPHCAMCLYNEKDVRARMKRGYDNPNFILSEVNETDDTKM
The experiment in a line: Inhibition of human Kir1.1 expressed in HEK293 cells after 30 mins by thallium flux assay. Type of experiment: cell-based.

One may read the IC50 as the concentration at which inhibition is half-maximal. Read a high IC50 as a need for much substance. The molecule `CC1=C(N2CCC3(CCN(C[C@@H](O)c4cc5c(cc4Cl)Cn4nnnc4-5)CC3)C2=O)COC1=O` had an IC50 of 9 nM.

In the case of `CC1=C(N2CCC3(CCN(C[C@H](O)c4ccc5c(c4)-c4nnnn4C5)CC3)C2=O)COC1=O`, the 50% inhibitory concentration (IC50) is 11 nM.

Molecule `CC1=C(N2CCC3(CCN(C[C@H](O)c4cc5c(cc4Cl)Cn4nnnc4-5)CC3)C2=O)COC1=O` yielded an IC50 of 31 nM.

In turn, `CC1=C(N2CCC3(CCN(C[C@H](O)c4cc5c(cc4C)Cn4nnnc4-5)CC3)C2=O)COC1=O` gave an IC50 of 17 nM.

In turn, `C[C@@H]1CC2(CCN(C[C@@H](O)c3ccc4c(c3)-c3nnnn3C4)CC2)C(=O)N1C1=CC(=O)OC1` gave an IC50 of 7 nM.

`CC1=C(N2CCC3(CCN(C[C@H](O)c4ccc5c(c4)-c4nnnn4C5)C[C@H]3F)C2=O)COC1=O` (stereo partly specified) came in with an IC50 of 43 nM.

`C[C@@H]1CC2(CCN(C[C@H](O)c3ccc4c(c3)-c3nnnn3C4)CC2)C(=O)N1C1=CC(=O)OC1` registered an IC50 of 32 nM.

Molecule `CC1=C(N2CCC3(CCN(C[C@@H](O)c4ccc5c(c4)-c4nnnn4C5)CC3)C2=O)COC1=O` had an IC50 of 19 nM.

`CC1=C(N2CCC3(CCN(C[C@H](O)c4ccc5c(c4)-c4nnnn4C5)C[C@@H]3F)C2=O)COC1=O` (stereo partly specified): the half-inhibitory concentration (IC50) is 35 nM.

Molecule `C[C@H]1CC2(CCN(C[C@@H](O)c3ccc4c(c3)-c3nnnn3C4)CC2)C(=O)N1C1=CC(=O)OC1` yielded an IC50 of 14 nM.

In the case of `C[C@H]1CC2(CCN(C[C@H](O)c3ccc4c(c3)-c3nnnn3C4)CC2)C(=O)N1C1=CC(=O)OC1`, the IC50 amounted to 20 nM.
